Assays:
Conditions in all cases: 72 h
[1] = system: SHI-1
Summary of the method: (§1)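 The IC50 was read from log-logistic dose–response fits. Fifteen myeloid leukaemia lines were exposed for 72 h at 37 °C with 5% CO2 to five tenfold doses from 1 to 10,000 nM in duplicate. ATP luminescence, normalised to vehicle and to a 10 µM positive control, was fitted with four parameters.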

[2] = system: KG-1
Summary of the method: as §1

[3] = system: KU-812
Summary of the method: as §1

[4] = system: MV4-11
Summary of the method: as §1

[5] = system: ML-2
Summary of the method: as §1

[6] = system: K-562
Summary of the method: as §1

[7] = system: NOMO-1
Summary of the method: as §1

[8] = system: THP-1
Summary of the method: as §1

[9] = system: MOLM-13
Summary of the method: as §1

[10] = system: HL-60
Summary of the method: as §1

[11] = system: Mono-Mac-6
Summary of the method: as §1

[12] = system: BV-173
Summary of the method: as §1

[13] = system: HEL
Summary of the method: as §1

[14] = system: LAMA-84
Summary of the method: as §1

Measured: IC50 (cell viability)

CCCCCCCCCCCCCCOc1ccc(C(=O)O)o1 [TOFA]
> 10 µM: [1] | [2] | [3] | [4] | [5] | [6] | [7] | [8] | [9] | [10] | [11] | [12] | [13] | [14]

CN1CC(=O)N2[C@H](c3ccc4c(c3)OCO4)c3[nH]c4ccccc4c3C[C@@H]2C1=O [Tadalafil]
> 10 µM: [1] | [2] | [3] | [4] | [5] | [6] | [7] | [8] | [9] | [10] | [11] | [12] | [13] | [14]

Cc1[nH]n(-c2ccccc2)c(=O)c1C1(C(F)(F)F)C(=O)N(c2ccccc2)C2=C1C(=O)CC(C)(C)C2 (configuration not stated)
> 10 µM: [1] | [2] | [3] | [4] | [5] | [6] | [7] | [8] | [9] | [10] | [11] | [12] | [13] | [14]

C#CCN[C@@H]1CCc2ccccc21 [Rasagiline]
> 10 µM: [1] | [2] | [3] | [4] | [5] | [6] | [7] | [8] | [9] | [10] | [11] | [12] | [13] | [14]

COc1cc(C2Oc3cc(C4Oc5cc(O)cc(O)c5C(=O)C4O)ccc3OC2CO)ccc1O (configuration not stated) [Silibinin]
> 10 µM: [1] | [2] | [3] | [4] | [5] | [6] | [7] | [8] | [9] | [10] | [11] | [12] | [13] | [14]

Cc1nc(-c2ccc(OCC(C)C)c(C#N)c2)sc1C(=O)O [Febuxostat]
> 10 µM: [1] | [2] | [3] | [4] | [5] | [6] | [7] | [8] | [9] | [10] | [11] | [12] | [13] | [14]

Cc1cc(O)c2c(c1)C(=O)c1cc(O)cc(O)c1C2=O [Emodin]
> 10 µM: [1] | [2] | [3] | [4] | [5] | [6] | [7] | [8] | [9] | [10] | [11] | [12] | [13] | [14]

NS(=O)(=O)c1ccc(NC(=O)Cc2ccccc2)cc1 [4-(2-Phenylacetamido)Benzenesulfonamide]
> 10 µM: [1] | [2] | [3] | [4] | [5] | [6] | [7] | [8] | [9] | [10] | [11] | [12] | [13] | [14]
